Data on 1 compound can be found in US20120178971A1, “Process for Isolation of a Novel Compound 5,8A-DI-1-Propyl 1-Octahydronapthalen-1-(2H) One,Trachyspermum AMI (Ajowan Caraway) Seeds” (ALIGARH MUSLIM UNIVERSITY, priority 2011, published 2012).

Assay [1] has as its system Streptococcus mutans. Put plainly: Determination of MIC. It is filed as cell-based. The conditions noted are these: against Streptococcus mutans.
The subject of assay [2] is Streptococcus mutans. The assay is described as follows: Sucrose dependent cell adherence of Streptococcus mutans. It is filed as cell-based. An excerpt: FIG. 2: Inhibitory effect of the compound on the extent of sucrose dependent cell adherence of Streptococcus mutans. The % cell adherence is the relative amount (%) of adherent cells at different concentrations of the compound as compared to the cells attached in the absence of any compound. Each value is an average of triplicate assays and each bar indicates ±SD (n=3).

Assay [3] concerns Streptococcus mutans biofilm. The assay is described as follows: Streptococcus mutans biofilm formation. It is filed as cell-based. Here is the method:
FIG. 3: Inhibitory effect of the compound on the biofilm formed by Streptococcus mutans. The % biofilm formed is the relative (%) of biofilm formed at different concentrations of the compound as compared to that in the absence of any compound. Each value is an average of triplicate assays and each bar indicates ±SD (n=3)
The biofilm formation was assessed using increasing concentration of the compound. […] As observed in the adherence, the inhibitory effect was also found to be in a dose dependent manner.

Assay [4] concerns Streptococcus mutans biofilm. The assay is described as follows: Confocal laser scanning microscopy of Streptococcus mutans biofilm. It is filed as cell-based. Conditions: 78.13 μ/ml, 24 h incubation. The procedure:
FIG. 4: CLSM images of Streptococccus mutans biofilm formed in the presence or absence of the compound after 24 h incubation. The results are expressed as the means ±standard deviations of triplicate assays.
The biofilm of Streptococcus mutans was analyzed under the confocal laser scanning microscope to observe the changes in its morphology as shown in FIG. 4. […] The cells in the treated sample were more spread out and dispersed. Each panel of the image is a representative view of 141.145 μm by 141.145 μm along the xy axis. The xy analysis provides the biofilm surface coverage, while the z-section analyses establish the thickness of the biofilm. The control cells have biofilms that are clumped and less spread along the xy lane, show a thickness of 19.74±0.5 μm. […] The cells wee individually scattered over the surface rather than in any arrangement.

Assay [5] relates to Streptococcus mutans. The assay is described as follows: Inhibition of acid production (pH of culture medium). Type of assay: cell-based. Here is the method:
[…] At a concentration of 78.13 μg/ml, there is maximum reduction in acid production as is evident by an increase in pH from 4.7 (control) to 7.5.

Assay [6] concerns Streptococcus mutans. The assay is described as follows: Cell surface hydrophobicity of Streptococcus mutans. Type of assay: cell-based. The conditions noted are these: 9.76 μg/ml, compared to untreated condition. An excerpt: FIG. 5: Inhibitory effect of compound on the hyrdophobicity of Streptococcus mutans where all the concentrations were taken in triplicates.
It was shown that the cell surface hydrophobocity of S. mutans is affected following treatment with the compound obtained from Trachyspermum ammi as shown in figure.

Assay [7] deals with crude GTF of Streptococcus mutans. The assay is described as follows: Inhibition of water insoluble glucan synthesis. Conditions: 4.88 μl/ml. It is filed as biochemical. Here is the method: FIG. 6: Inhibitory effects of the compound on insoluble glucan synthesis by crude GTF of Streptococcus mutans. The % insoluble glucan synthesis is the relative amount (%) ±SD (n=3)
The influence of different concentrations was assessed for the synthesis of insoluble glucan.

Assay [8] deals with Streptococcus mutans. The assay is described as follows: Inhibition of acid production (pH of culture medium). It is filed as cell-based. This is another data set of the same source.

Converted amounts (≈) assume the structure as drawn.

In the assay on Streptococcus mutans [1], `CCCC1CCCC2(CCC)C(=O)CCCC12` (centres unmarked) [the compound, 5,8a-di-1 propyl-octahydronapthalen-1-(2H)-one] showed a minimal inhibitory concentration (MIC) of 156 µg/mL (≈ 661 µM). For the same compound, in the assay on Streptococcus mutans [2] (9.77 μg/ml), the reduction in adherence stood at 30%. The “least concentration to give at least 50% inhibition of adherence” value in the assay on Streptococcus mutans [2] (sucrose dependent adherence) came to 39.06 µg/mL. Further, the biofilm formation result is given as “inhibited the biofilm formation” in assay [3] (78.13 μg/ml) and “completely inhibited the biofilm formation” in assay [3] (156.25 μg/ml (MIC)). Moreover, the biofilm morphology entry in assay [4] (CLSM) was “complete absence of clumped cells”. Moreover, the “thickness of the biofilm” value in assay [4] (CLSM z-section) came to 12.8±0.7 µm. The “pH ± SD (after 24 h)” value in the assay with Streptococcus mutans [5] (2.44 μg/ml) turned out to be 4.77 ± 1.69; with Streptococcus mutans [5] (4.88 μg/ml), 4.84 ± 1.20; with Streptococcus mutans [5] (9.76 μg/ml), 5.49 ± 1.05; in the assay on Streptococcus mutans [5] (19.53 μg/ml) it was 5.62 ± 1.96; in the assay with Streptococcus mutans [5] (39.01 μg/ml), 5.68 ± 6.78; with Streptococcus mutans [5] (78.13 μg/ml) it was 6.48 ± 5.97. Further, the “pH ± SD (after 24 h)” value in the assay with Streptococcus mutans [5] (156.25 μg/ml) came out at 7.55 ± 2.65. The cell surface hydrophobicity result in the assay on Streptococcus mutans [6] is “drastically reduced the cell surface hydrophobicity to more than half”. In assay [7], the “reduction in the synthesis of insoluble glucan” value worked out at 25%. In addition, the “pH ± SD (onset)” value in the assay with Streptococcus mutans [8] (2.44 μg/ml) was found to be 7.28 ± 0.09; with Streptococcus mutans [8] (4.88 μg/ml) it was 7.24 ± 1.33; in the assay on Streptococcus mutans [8] (9.76 μg/ml), 7.33 ± 1.11; in the assay with Streptococcus mutans [8] (19.53 μg/ml), 7.38 ± 1.91; in the assay on Streptococcus mutans [8] (39.01 μg/ml), 7.43 ± 1.13; in the assay with Streptococcus mutans [8] (78.13 μg/ml), 7.43 ± 0.15. The “pH ± SD (onset)” value with Streptococcus mutans [8] (156.25 μg/ml) worked out at 7.38 ± 1.29.
